Laboratory results reported in EP0240874A1, “Highly resorbable preparation of hymecromone, and method for its production” (Dolorgiet GmbH & Co. KG, priority 1986, dated 1987).

Legend:
[1] = cold and warm water; from Beilsteins Handbuch; cited from earlier work
Solubility in water = assay type: physicochemical; conditions: general statement, no test described

Löslichkeit in Wasser (Solubility in water)	Compound	Löslichkeit in kaltem und warmen Wasser [1]
	Cc1cc(=O)oc2cc(O)ccc12 [Hymecromon, 7-Hydroxy-4-methyl-cumarin]	nahezu unlöslich
gut löslich	Cc1cc(=O)oc2cc(O)ccc12 [Natriumsalz]	
